Assay results as given in US8343951B2, “Volatile sulfide production inhibitor and method for inhibiting the production of volatile sulfide using the inhibitor” (Kabushiki Kaisha Hayashibara Seibutsu Kagaku Kenkyujo, priority 2006, dated 2013).

Columns and labels:
[1] = Hydrogen sulfide production from heated mackerel meat homogenate (headspace detecting tube); details: for Produced Volatile sulfide: hydrogen sulfide in headspace; for Inhibiting rate of volatile sulfide production: hydrogen sulfide, relative to control
Experimental: AA-2G (reagent grade, commercialized by Hayashibara Biochemical Laboratories, Inc.) was dissolved in distilled water to give a solution of a concentration of 10%. A certain amount of the solution and 5 ml of 500 mM phosphate buffer (pH 7.0) were put into measuring flask and filled up to 50 ml to give the test solutions containing AA-2G at the twofold concentration described in Table 1. Also the test solutions containing ascorbic acid were prepared in the same way except for using ascorbic acid (guaranteed regent) in place of AA-2G. Five ml of 500 mM phosphate buffer (pH 7.0) was filled up to 50 ml with distilled water to give control solution. Edible part of commercial mackerel fillet without bone and skin was chopped with trio blender and homogeneously stirred to make minced mackerel. Forty-five grams of the minced mackerel was put into a beaker and added with 45 g of the test solution or control solution to give the samples at the concentration of AA-2G or ascorbic acid described in Table 1. The samples were treated with homogenizer (produced by IKA Works Inc.) at ice-chilled temperature to give the homogenates as the test samples. PH of the homogenates is from 6.21 to 6.38. Ten grams of the above samples were put into 20 ml-vials and sealed with butyl rubber cap and aluminum seal. They were heated in boiled water bath for 15 minutes and cooled in running cool water. After cooled, they were heated on heating block (80° C.) for 10 minutes and the solidified samples were broken with vortex mixer. The amounts of hydrogen sulfide in the headspace gas were measured by hydrogen sulfide detecting tube ([…] No. 4LT, produced by GL Sciences Inc.). Also the inhibiting rate (%) of hydrogen sulfide production were shown in Table 1, which were obtained by subtracting the percentage amounts of hydrogen sulfide produced from 1 g of mackerel meats added with test solutions relative to the amount of hydrogen sulfide produced from 1 g of mackerel meat added with control solution from 100 to obtain.

[2] = Dimethyl-sulfide and dimethyl-disulfide production from heated milk (headspace gas chromatography); details: for Produced Dimethyl-disulfide / Produced Dimethyl-sulfide: milk heated 130° C. one minute; for production of volatile sulfides (dimethyl-sulfide and dimethyl-disulfide) from the test solutions / Produced Volatile sulfide: milk; for Inhibiting rate of volatile sulfide production: relative to control milk; for Produced Volatile sulfide: sum of dimethyl-sulfide and dimethyl-disulfide
Experimental: AA-2G (reagent grade, commercialized by Hayashibara Biochemical Laboratories, Inc.) was added in commercial milk to give the concentrations described in Table 2 to make the test solutions. Test solutions containing ascorbic acid were prepared in the same way except for using ascorbic acid (guaranteed regent) in place of AA-2G. The commercial milk was used plain as control. Sensory test of the solutions was performed by 11 panelists to evaluate the taste of each test solution added with AA-2G or ascorbic acid as being different (D) from control or as being the same (S) as control. As a result, eight or more of the 11 panelists gave a same evaluation to each test solution.
One ml of the above samples were put into 20 ml-vials and sealed with butyl rubber cap and aluminum seal. After heated at 130° C. for one minute, the amounts of dimethyl-sulfide and dimethyl-disulfide in the headspace were measured by gas chromatography in conventional way. The sums of them were shown as the amounts of volatile sulfide in Table 2. Also the inhibiting rates (%) of volatile sulfide production were shown in Table 2, which were obtained by subtracting the percentage amounts of volatile sulfide produced from ml of the test solutions relative to the amount of volatile sulfide produced from 1 ml of control (milk) from 100 to obtain.

O=C1O[C@H]([C@@H](O)CO)C(O)=C1O [Ascorbic acid, L-ascorbic acid, reference compound]
hydrogen sulfide production from homogenate of mackerel meat ([1]; concentration of 0.005% or less): equal to control
hydrogen sulfide production from homogenate of mackerel meat ([1]; concentration of 0.01% or more): enhanced
Produced Volatile sulfide ([1]; additive 0.0001% in sample): 44.1 μg/g-mackerel
Produced Volatile sulfide ([1]; additive 0.0005% in sample): 43.4 μg/g-mackerel
Produced Volatile sulfide ([1]; additive 0.001% in sample): 43.6 μg/g-mackerel
Produced Volatile sulfide ([1]; additive 0.005% in sample): 42.9 μg/g-mackerel
Produced Volatile sulfide ([1]; additive 0.01% in sample): 71.7 μg/g-mackerel
Produced Volatile sulfide ([1]; additive 0.025% in sample): 133.9 μg/g-mackerel
Produced Volatile sulfide ([1]; additive 0.05% in sample): 139.3 μg/g-mackerel
Produced Volatile sulfide ([1]; additive 0.1% in sample): 207.1 μg/g-mackerel
Produced Volatile sulfide ([1]; additive 0.5% in sample): 257.4 μg/g-mackerel
Produced Volatile sulfide ([1]; additive 1.0% in sample): 287.8 μg/g-mackerel
Inhibiting rate of volatile sulfide production ([1]; additive 0.0001% in sample): −2.1%
Inhibiting rate of volatile sulfide production ([1]; additive 0.0005% in sample): −0.5%
Inhibiting rate of volatile sulfide production ([1]; additive 0.001% in sample): −0.9%
Inhibiting rate of volatile sulfide production ([1]; additive 0.005% in sample): 0.7%
Inhibiting rate of volatile sulfide production ([1]; additive 0.01% in sample): −66.0%
Inhibiting rate of volatile sulfide production ([1]; additive 0.025% in sample): −210.0%
Inhibiting rate of volatile sulfide production ([1]; additive 0.05% in sample): −222.5%
Inhibiting rate of volatile sulfide production ([1]; additive 0.1% in sample): −379.4%
Inhibiting rate of volatile sulfide production ([1]; additive 0.5% in sample): −495.8%
Produced Dimethyl-disulfide ([2]; additive 0.0001% in sample): 0.56 μg/ml-milk
Produced Dimethyl-sulfide ([2]; additive 0.0001% in sample): 1.32 μg/ml-milk
Produced Dimethyl-disulfide ([2]; additive 0.0005% in sample): 0.54 μg/ml-milk
Produced Dimethyl-sulfide ([2]; additive 0.0005% in sample): 1.41 μg/ml-milk
Produced Dimethyl-disulfide ([2]; additive 0.001% in sample): 0.51 μg/ml-milk
Produced Dimethyl-sulfide ([2]; additive 0.001% in sample): 1.28 μg/ml-milk
Produced Dimethyl-disulfide ([2]; additive 0.005% in sample): 0.24 μg/ml-milk
Produced Dimethyl-sulfide ([2]; additive 0.005% in sample): 0.71 μg/ml-milk
Produced Dimethyl-disulfide ([2]; additive 0.01% in sample): 0.21 μg/ml-milk
Produced Dimethyl-sulfide ([2]; additive 0.01% in sample): 0.45 μg/ml-milk
Produced Dimethyl-disulfide ([2]; additive 0.05% in sample): 0.18 μg/ml-milk
Produced Dimethyl-sulfide ([2]; additive 0.05% in sample): 0.54 μg/ml-milk
Produced Dimethyl-disulfide ([2]; additive 0.1% in sample): 0.27 μg/ml-milk
Produced Dimethyl-sulfide ([2]; additive 0.1% in sample): 0.61 μg/ml-milk
Produced Dimethyl-disulfide ([2]; additive 0.5% in sample): 0.31 μg/ml-milk
Produced Dimethyl-sulfide ([2]; additive 0.5% in sample): 0.74 μg/ml-milk
Produced Dimethyl-disulfide ([2]; additive 2.5% in sample): 0.38 μg/ml-milk
Produced Dimethyl-sulfide ([2]; additive 2.5% in sample): 1.07 μg/ml-milk
production of volatile sulfides (dimethyl-sulfide and dimethyl-disulfide) from the test solutions ([2]; concentration of 0.001% or less): equal to control
production of volatile sulfides (dimethyl-sulfide and dimethyl-disulfide) from the test solutions ([2]; concentration of 0.005%): inhibited
Inhibiting rate of volatile sulfide production ([2]; additive 0.0001% in sample): 0.5%
Inhibiting rate of volatile sulfide production ([2]; additive 0.0005% in sample): −3.2%
Inhibiting rate of volatile sulfide production ([2]; additive 0.001% in sample): 5.3%
Inhibiting rate of volatile sulfide production ([2]; additive 0.005% in sample): 49.7%
Inhibiting rate of volatile sulfide production ([2]; additive 0.01% in sample): 65.1%
Inhibiting rate of volatile sulfide production ([2]; additive 0.05% in sample): 61.9%
Inhibiting rate of volatile sulfide production ([2]; additive 0.1% in sample): 53.4%
Inhibiting rate of volatile sulfide production ([2]; additive 0.5% in sample): 44.4%
Inhibiting rate of volatile sulfide production ([2]; additive 2.5% in sample): 23.3%
Produced Volatile sulfide ([2]; additive 0.0001% in sample): 1.88 µg/mL
Produced Volatile sulfide ([2]; additive 0.0005% in sample): 1.95 µg/mL
Produced Volatile sulfide ([2]; additive 0.001% in sample): 1.79 µg/mL
Produced Volatile sulfide ([2]; additive 0.005% in sample): 0.95 µg/mL
Produced Volatile sulfide ([2]; additive 0.01% in sample): 0.66 µg/mL
Produced Volatile sulfide ([2]; additive 0.05% in sample): 0.72 µg/mL
Produced Volatile sulfide ([2]; additive 0.1% in sample): 0.88 µg/mL
Produced Volatile sulfide ([2]; additive 0.5% in sample): 1.05 µg/mL
Produced Volatile sulfide ([2]; additive 2.5% in sample): 1.45 µg/mL
